Structures can show the parent of a compound that is named as a salt.
biological target: T1, human MCHR1 (Homo sapiens, UniProt Q99705); assay: Cyclic AMP assay (MCHR-1 functional antagonism); type: cell-based; settings: CHO cells stably expressing human MCHR1; cAMP accumulation with 25 uM forskolin and 0.2 nM MCH, 90 min; Ki from IC50 by Cheng-Prusoff; read-out: MCHR-1 functional Ki
T1 construct: host or cells: CHO
T1 sequence (Q99705 whole entry): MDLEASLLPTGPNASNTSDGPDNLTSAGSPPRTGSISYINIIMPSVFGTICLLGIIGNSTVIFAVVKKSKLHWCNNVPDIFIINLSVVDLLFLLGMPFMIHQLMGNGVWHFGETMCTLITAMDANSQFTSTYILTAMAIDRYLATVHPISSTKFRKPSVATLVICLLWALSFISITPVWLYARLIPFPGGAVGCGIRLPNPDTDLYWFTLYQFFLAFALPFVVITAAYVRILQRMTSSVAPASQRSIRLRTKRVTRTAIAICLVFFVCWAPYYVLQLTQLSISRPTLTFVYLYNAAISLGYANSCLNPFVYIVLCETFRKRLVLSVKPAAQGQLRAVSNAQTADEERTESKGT

Compound | Ki
O=c1cc(OCc2ccccc2)ccn1-c1ccc(N2CC[C@H](O)C2)nc1 [Example 16, 4-(benzyloxy)-6′-[(3S)-3-hydroxypyrrolidin-1-yl]-2H-1,3′-bipyridin-2-one] | 133 nM
O=c1cc(OCc2ccccc2)ccn1-c1ccc(N2C[C@H]3CNC[C@H]3C2)nc1 [Example 8, 4-(Benzyloxy)-6′-[(3aR,6aS)-hexahydropyrrolo[3,4-c]pyrrol-2(1H)-yl]-2H-1,3′-bipyridin-2-one dihydrochloride] | 8.67 nM
CC1(O)CCN(c2ccc(-n3ccc(OCc4ccccc4)cc3=O)cn2)CC1 [Example 44] | 113 nM
O=c1cc(OCc2ccccc2)ccn1-c1ccc(N2CC(N3CCC3)C2)nc1 [Example 79] | 416 nM
CCN(C(=O)OC(C)(C)C)[C@@H]1CCN(c2ccc(-n3ccc(OCc4ccccc4)cc3=O)cn2)C1 [Example 23a, tert-Butyl {(3R)-1-[4-(benzyloxy)-2-oxo-2H-1,3′-bipyridin-6′-yl]pyrrolidin-3-yl}ethylcarbamate] | 15.7 nM
O=c1cc(OCc2ccc(F)cc2)ccn1-c1ccc(N2CCC[C@@H](O)C2)nc1 [Example 87] | 191 nM
CCC(=O)N1CCN(c2ccc(-n3ccc(OCc4ccccc4)cc3=O)cn2)CC1 [Example 167] | 749 nM
O=c1cc(OCc2ccc(F)cc2)ccn1-c1ccc(N2CC[C@H](O)C2)nc1 [Example 114] | 47.9 nM
O=c1cc(OCc2cccc(Cl)c2)ccn1-c1ccc(N2CC[C@@H](O)C2)nc1 [Example 144] | 69.9 nM
CCC(=O)N1C[C@@H]2CN(c3ccc(-n4ccc(OCc5ccc(F)cc5)cc4=O)cn3)C[C@@H]2C1 [Example 171] | 38.1 nM
CC(C)(C)OC(=O)N1C[C@@H]2CN(c3ccc(-n4ccc(OCc5ccccc5)cc4=O)cn3)C[C@@H]2C1 [Example 4, tert-Butyl (3aR,6aS)-5-[4-(benzyloxy)-2-oxo-2H-1,3′-bipyridin-6′-yl]hexahydropyrrolo[3,4-c]pyrrole-2(1H)-carboxylate] | 1950 nM
CN(C)C1CN(c2ccc(-n3ccc(OCc4ccccc4)cc3=O)cn2)C1 [Example 239] | 41.2 nM
C[C@@H]1CN(c2ccc(-n3ccc(OCc4ccccc4)cc3=O)cn2)[C@@H](C)CN1 [Example 73] | 517 nM
CN(C(=O)OC(C)(C)C)[C@H]1CCN(c2ccc(-n3ccc(OCc4ccccc4)cc3=O)cn2)C1 [Example 12, tert-Butyl {(3S)-1-[4-(benzyloxy)-2-oxo-2H-1,3′-bipyridin-6′-yl]pyrrolidin-3-yl}methyl carbamate] | 9.98 nM
O=C1CCN(c2ccc(-n3ccc(OCc4ccccc4)cc3=O)cn2)C1 [Example 30, 4-(Benzyloxy)-6′-(3-oxopyrrolidin-1-yl)-2H-1,3′-bipyridin-2-one] | 2470 nM
O=c1cc(OCc2ccccc2)ccn1-c1ccc(N2CCCC2)nc1 [Example 34, 4-(benzyloxy)-6′-pyrrolidin-1-yl-2H-1,3′-bipyridin-2-one] | 54.3 nM
O=c1cc(OCc2ccc(F)cc2)ccn1-c1ccc(N2CC(O)C2)nc1 [Example 91] | 396 nM
CN(C)[C@H]1CCN(c2ccc(-n3ccc(OCc4ccccc4)cc3=O)cn2)C1 [Example 57] | 3.66 nM
O=c1cc(OCc2ccc(Cl)c(Cl)c2)ccn1-c1ccc(N2CC[C@@H](O)C2)nc1 [Example 204] | 330 nM
CNC1(C)CCN(c2ccc(-n3ccc(OCc4ccccc4)cc3=O)cn2)C1 (single isomer, unassigned) [Example 18b, 4-(Benzyloxy)-6′-[3-methyl-3-(methylamino)pyrrolidin-1-yl]-2H-1,3′-bipyridin-2-one] | 18.3 nM
CC(C)C(=O)N1CCN(c2ccc(-n3ccc(OCc4ccccc4)cc3=O)cn2)CC1 [Example 166] | 1210 nM
COC(=O)NC1CN(c2ccc(-n3ccc(OCc4ccc(F)cc4)cc3=O)cn2)C1 [Example 193] | 196 nM
CN[C@H]1CCN(c2ccc(-n3ccc(OCc4ccccc4Cl)cc3=O)cn2)C1 [Example 151] | 6.04 nM
O=c1cc(OCc2ccccc2)ccn1-c1ccc(N2CC3CCC(C2)N3)nc1 [Example 220] | 513 nM
